Data published in PMC10268404, “Insight into broad substrate specificity and synergistic contribution of a fungal α-glucosidase in Chinese Nong-flavor daqu” (Microbial Cell Factories, 2023).

How the values were obtained:
[1] = test system: T1, NFAg31A (also printed NFEg31A), product of ORF15963; assay: HPAEC-PAD of released glucose, Michaelis-Menten fit; assay type: biochemical; conditions: pH 7.0, 45 ℃, 15 min, 0.25 µM enzyme
T1 construct: 960 aa ORF without 30 aa signal peptide (primer-derived start M-VKHENFKK, end REWRI), incl; C-terminal DUF5100; 6xHis kept, printed C-terminal (but reverse primer holds a stop, so probably N-terminal pET-28a tag); E. coli BL21(DE3)
Description: HPAEC-PAD of released glucose, Michaelis-Menten fit on NFAg31A (also printed NFEg31A), product of ORF15963

[2] = test system: T1, NFAg31A (also printed NFEg31A), product of ORF15963; assay: p-nitrophenol release at […] nm, Michaelis-Menten fit; assay type: biochemical; conditions: pH 7.0, 45 ℃, 15 min, 0.25 µM enzyme

Km [1] [mM]	Km [2] [mM]	SMILES
19.3 ± 2.5		OC[C@H]1O[C@H](O[C@H]2[C@H](O)[C@@H](CO)OC(O)[C@@H]2O)[C@H](O)[C@@H](O)[C@@H]1O (stereo partly shown) [Nigerose]
3.9 ± 0.3		OC[C@H]1O[C@H](O[C@H]2C(O)O[C@H](CO)[C@@H](O)[C@@H]2O)[C@H](O)[C@@H](O)[C@@H]1O (stereo partly shown) [Kojibiose]
	0.55 ± 0.06	O=[N+]([O-])c1ccc(O[C@H]2O[C@H](CO)[C@@H](O)[C@H](O)[C@H]2O)cc1 [pNPαG, p-Nitrophenyl-α-D-glucopyranoside]
11.5 ± 0.7		OC[C@H]1O[C@H](O[C@H]2[C@H](O)[C@@H](O)C(O)O[C@@H]2CO)[C@H](O)[C@@H](O)[C@@H]1O (stereo partly shown) [Maltose]
